Data: the NIST ThermoML archive (doi:10.1021/je5009679)
± gives the expanded uncertainty stated by the source.

Conditions: Liquid; for viscosity: Concentric cylinders viscometry

CC(=O)[O-].CCCCn1cc[n+](C)c1 [1-butyl-3-methylimidazolium acetate]
101.33 kPa
Conditions	viscosity [mPa·s]
293.15 K	592.3 ± 33
303.15 K	274.1 ± 14
313.15 K	142.4 ± 6.9
323.15 K	81.88 ± 3.9
333.15 K	51.11 ± 2.4
343.15 K	33.65 ± 1.6
353.15 K	23.51 ± 1.1
363.15 K	17.09 ± 0.8
373.15 K	12.93 ± 0.6

Conditions	mass density [kg/m3]
293.15 K, 101.33 kPa, Vibrating tube method	1053.8 ± 1
303.15 K, 101.33 kPa, Vibrating tube method	1047.4 ± 1
311.4 K, 10000 kPa, Bellows volumetry	1046.7 ± 1.4
311.4 K, 20000 kPa, Bellows volumetry	1050.8 ± 1.4
311.4 K, 30000 kPa, Bellows volumetry	1054.8 ± 1.4
311.4 K, 40000 kPa, Bellows volumetry	1058.6 ± 1.4
311.4 K, 50000 kPa, Bellows volumetry	1062.3 ± 1.4
311.4 K, 60000 kPa, Bellows volumetry	1065.8 ± 1.4
311.4 K, 70000 kPa, Bellows volumetry	1069.3 ± 1.4
311.4 K, 80000 kPa, Bellows volumetry	1072.7 ± 1.4
311.4 K, 90000 kPa, Bellows volumetry	1076 ± 1.4
311.4 K, 100000 kPa, Bellows volumetry	1079 ± 1.4
311.4 K, 110000 kPa, Bellows volumetry	1082.1 ± 1.4
311.4 K, 120000 kPa, Bellows volumetry	1085.1 ± 1.4
311.4 K, 130000 kPa, Bellows volumetry	1088.1 ± 1.4
311.4 K, 140000 kPa, Bellows volumetry	1090.9 ± 1.4
311.4 K, 150000 kPa, Bellows volumetry	1093.7 ± 1.4
311.4 K, 160000 kPa, Bellows volumetry	1096.5 ± 1.4
311.4 K, 170000 kPa, Bellows volumetry	1099.1 ± 1.4
311.4 K, 180000 kPa, Bellows volumetry	1101.9 ± 1.4
311.4 K, 190000 kPa, Bellows volumetry	1104.5 ± 1.4
311.4 K, 200000 kPa, Bellows volumetry	1107.1 ± 1.4
313.15 K, 101.33 kPa, Vibrating tube method	1041.4 ± 1
323.15 K, 101.33 kPa, Vibrating tube method	1035.4 ± 1
331.1 K, 10000 kPa, Bellows volumetry	1034.7 ± 1.4
331.1 K, 20000 kPa, Bellows volumetry	1039.1 ± 1.4
331.1 K, 30000 kPa, Bellows volumetry	1043.3 ± 1.4
331.1 K, 40000 kPa, Bellows volumetry	1047.3 ± 1.4
331.1 K, 50000 kPa, Bellows volumetry	1051.2 ± 1.4
331.1 K, 60000 kPa, Bellows volumetry	1054.9 ± 1.4
331.1 K, 70000 kPa, Bellows volumetry	1058.5 ± 1.4
331.1 K, 80000 kPa, Bellows volumetry	1062.1 ± 1.4
331.1 K, 90000 kPa, Bellows volumetry	1065.2 ± 1.4
331.1 K, 100000 kPa, Bellows volumetry	1068.7 ± 1.4
331.1 K, 110000 kPa, Bellows volumetry	1071.9 ± 1.4
331.1 K, 120000 kPa, Bellows volumetry	1075 ± 1.4
331.1 K, 130000 kPa, Bellows volumetry	1078.2 ± 1.4
331.1 K, 140000 kPa, Bellows volumetry	1081.1 ± 1.4
331.1 K, 150000 kPa, Bellows volumetry	1084 ± 1.4
331.1 K, 160000 kPa, Bellows volumetry	1086.8 ± 1.4
331.1 K, 170000 kPa, Bellows volumetry	1089.6 ± 1.4
331.1 K, 180000 kPa, Bellows volumetry	1092.4 ± 1.4
331.1 K, 190000 kPa, Bellows volumetry	1095.1 ± 1.4
331.1 K, 200000 kPa, Bellows volumetry	1097.7 ± 1.4
333.15 K, 101.33 kPa, Vibrating tube method	1029.5 ± 1
343.15 K, 101.33 kPa, Vibrating tube method	1023.7 ± 1
351.3 K, 10000 kPa, Bellows volumetry	1023.2 ± 1.4
351.3 K, 20000 kPa, Bellows volumetry	1027.7 ± 1.4
351.3 K, 30000 kPa, Bellows volumetry	1032.1 ± 1.4
351.3 K, 40000 kPa, Bellows volumetry	1036.4 ± 1.4
351.3 K, 50000 kPa, Bellows volumetry	1040.4 ± 1.4
351.3 K, 60000 kPa, Bellows volumetry	1044.3 ± 1.4
351.3 K, 70000 kPa, Bellows volumetry	1048 ± 1.4
351.3 K, 80000 kPa, Bellows volumetry	1051.6 ± 1.4
351.3 K, 90000 kPa, Bellows volumetry	1055 ± 1.4
351.3 K, 100000 kPa, Bellows volumetry	1058.4 ± 1.4
351.3 K, 110000 kPa, Bellows volumetry	1061.7 ± 1.4
351.3 K, 120000 kPa, Bellows volumetry	1065 ± 1.4
351.3 K, 130000 kPa, Bellows volumetry	1068.1 ± 1.4
351.3 K, 140000 kPa, Bellows volumetry	1071.2 ± 1.4
351.3 K, 150000 kPa, Bellows volumetry	1074.3 ± 1.4
351.3 K, 160000 kPa, Bellows volumetry	1077.3 ± 1.4
351.3 K, 170000 kPa, Bellows volumetry	1080.2 ± 1.4
351.3 K, 180000 kPa, Bellows volumetry	1083 ± 1.4
351.3 K, 190000 kPa, Bellows volumetry	1086 ± 1.4
351.3 K, 200000 kPa, Bellows volumetry	1088.5 ± 1.4
353.15 K, 101.33 kPa, Vibrating tube method	1017.9 ± 1
363.15 K, 101.33 kPa, Vibrating tube method	1012 ± 1
371.3 K, 10000 kPa, Bellows volumetry	1011.7 ± 1.4
371.3 K, 20000 kPa, Bellows volumetry	1016.5 ± 1.4
371.3 K, 30000 kPa, Bellows volumetry	1021.2 ± 1.4
371.3 K, 40000 kPa, Bellows volumetry	1025.5 ± 1.4
371.3 K, 50000 kPa, Bellows volumetry	1029.6 ± 1.4
371.3 K, 60000 kPa, Bellows volumetry	1033.8 ± 1.4
371.3 K, 70000 kPa, Bellows volumetry	1037.7 ± 1.4
371.3 K, 80000 kPa, Bellows volumetry	1041.5 ± 1.4
371.3 K, 90000 kPa, Bellows volumetry	1045 ± 1.4
371.3 K, 100000 kPa, Bellows volumetry	1048.5 ± 1.4
371.3 K, 110000 kPa, Bellows volumetry	1051.9 ± 1.4
371.3 K, 120000 kPa, Bellows volumetry	1055.3 ± 1.4
371.3 K, 130000 kPa, Bellows volumetry	1058.6 ± 1.4
371.3 K, 140000 kPa, Bellows volumetry	1061.8 ± 1.4
371.3 K, 150000 kPa, Bellows volumetry	1064.9 ± 1.4
371.3 K, 160000 kPa, Bellows volumetry	1067.8 ± 1.4
371.3 K, 170000 kPa, Bellows volumetry	1071 ± 1.4
371.3 K, 180000 kPa, Bellows volumetry	1073.9 ± 1.4
371.3 K, 190000 kPa, Bellows volumetry	1076.8 ± 1.4
371.3 K, 200000 kPa, Bellows volumetry	1079.5 ± 1.4
373.15 K, 101.33 kPa, Vibrating tube method	1006.1 ± 1
